Marks after values point to notes of the source that are not given here.
Experiments:
ACAT = ACAT activity in liver microsomes of treated rats (Experimental Example 6, Step 3); format: in vivo, rat; conditions: liver microsomes of rats fed 6 weeks; for ACAT activity: average; for ACAT activity inhibition: relative to control group
Procedure: 1 g of the liver tissue taken from each sacrificed rat of Step 1 was homogenized in 5 ml of the first homogenization medium {0.1 M KH2PO4(pH 7.4), 0.1 mM EDTA and 10 mM β-mercaptoethanol}. The homogenate was centrifuged at 3,000×g for 15 minutes at 4° C. and the supernatant thus obtained was put into a tube and centrifuged at 15,000×g for 15 minutes at 4° C. to obtain a supernatant. The resulting supernatant was put into a 5 mL ultracentrifuge tube (Beckman) and centrifuged at 100,000×g for 1 hour at 4° C. The supernatant was removed off and pellets thus obtained were suspended in 3 mL of the first homogenization medium and centrifuged at 100,000×g for 1 hour at 4° C. The resulting supernatant was removed off and pellets thus obtained were suspended in 1 ml of the first homogenization medium. The resulting suspension was stored in a deep freezer.
6.67 μl of 1 mg/ml cholesterol solution in acetone was mixed with 6 μl of 10% Triton WR-1339 (Sigma Co.) in acetone. Acetone was removed from the mixture by evaporation under a nitrogen flow. To the resulting mixture, distilled water was added to adjust the concentration of cholesterol to 300 mg/10 ml. 10 μl of the resulting aqueous cholesterol solution was mixed with 10 μl of 1 M KH2PO4 (pH 7.4), 5 μl of 0.6 mM bovine serum albumin (BSA), 10 μl of the microsome solution obtained as above and 55 μl of distilled water (total 90 μl). The mixture was pre-incubated in a water bath at 37° C. for 30 minutes.
10 μl of oleyl-CoA solution […] prepared by mixing radiolabelled oleyl-CoA with oleyl-CoA was added to the pre-incubated mixture and the resulting mixture was incubated in a water bath at 37° C. for 30 minutes. 500 μl of isopropanol:heptane mixture (4:1 (v/v)), 300 μl of heptane and 200 μl of 0.1 M KH2PO4 (pH 7.4) were added to the mixture. The mixture was mixed vigorously using a vortex mixer and then allowed to stand at room temperature for 2 minutes.
200 μl of the resulting supernatant was put in a scintillation bottle and 4 mL of scintillation fluid (Lumac) was added thereto. The mixture was assayed for radioactivity with a scintillation counter. ACAT activity was calculated from the measured radioactivity, which was used to determine the ACAT activity inhibition (%).

[1] = test system: New Zealand White rabbits; test: Fatty streak in the main artery of cholesterol-fed rabbits (Experimental Example 7, Step 2); format: in vivo, rabbit; conditions: 8 weeks; for Proportion of stained region (fatty streak region) per unit area of the artery: 1% cholesterol + RC4 diet, lovastatin 0.003 wt %, BN compounds 0.025 wt %, average ± standard deviation; for Proportion of the fatty streak region compared to the control group: 1% cholesterol diet
Procedure: The rabbits raised in Step 1 were sacrificed and their chests were incised. The incision was performed downward to the diaphragm along the aortic arch and the fat surrounding the main artery was removed. The main artery was incised in the middle along the longitudinal axis from the second aortic intercostal artery anastomoses to the seventh aortic intercostal artery anastomoses and fixed with 10% neutral buffered formalin for 24 hours. Then, the incised main artery was pinned to a dish for staining of fatty streaks according to the method of Esper, E., et al. {J. Lab. Clin. Med., 121, 103-110 (1993)}. The artery was washed with propylene glycol three times for 2 minutes respectively. The artery was stained for 30 minutes with a saturated solution of Oil Red O (ORO, Sigma Co.) dissolved in propylene glycol. Thereafter, the artery was washed with 85% propylene glycol twice for 3 minutes respectively to remove the remaining staining solution and, then the artery was washed with physiological saline once. The artery was photographed and the photograph was traced. The proportion (%) of stained region (fatty streak region) per unit area of the artery was determined with an image analyzer (LEICA, Q-600, Germany). The significant differences between the test groups were tested by student t-test using Microsoft excel (version 7.0) program

[2] = test system: New Zealand White rabbits; test: Chemical analysis of blood of cholesterol-fed rabbits (Experimental Example 7, Step 3); conditions: 8 weeks
Procedure: Healthy male New Zealand White rabbits, each weighing about 2.0 to 2.3 kg, were supplied from Yeonam Horticulture and Animal Husbandry College (Korea) and raised under a breeding environment of temperature 20±2° C., relative humidity 55±10%, and photoperiod 12L/12D. […] The rabbits were fed for 8 weeks while being allowed free access to the diets and water.

[3] = test system: New Zealand White rabbits; test: Morphological observation of liver tissue of cholesterol-fed rabbits (Experimental Example 7, Step 4)
Procedure: Healthy male New Zealand White rabbits, each weighing about 2.0 to 2.3 kg, were supplied from Yeonam Horticulture and Animal Husbandry College (Korea) and raised under a breeding environment of temperature 20±2° C., relative humidity 55±10%, and photoperiod 12L/12D. The rabbits were divided into 5 groups, which were fed with 5 different diets, i.e., the control group fed with RC4 diet (Oriental Yeast Co., Japan) comprising moisture (7.6%), crude protein (22.8%), crude fat (2.8%), crude ash (8.8%), crude cellulose (14.4%) and soluble nitrogen-free substances (43.7%) plus cholesterol (1%) and four treatment groups further fed with lovastatin or BN30063, BN30064, BN30067 in addition to the feed of the control group. The rabbits were fed for 8 weeks while being allowed free access to the diets and water.
Proportions of cells in the liver acinus containing excessive fat or modified to have irregular arrangement due to a high cholesterol diet were classified into four grades, from 1+ to 4+.

[4] = 1% cholesterol diet, lovastatin 1 mg/kg, BN compounds 0.025%, average ± standard deviation

SMILES	ACAT activity (ACAT) [pmol/minute/mg protein]	ACAT activity inhibition (ACAT) [%]	Proportion of stained region (fatty streak region) per unit area of the artery [1]	Proportion of the fatty streak region compared to the control group [1]	HDL [2, 4] [mg/dL]	TC [2, 4]	Grade of abnormal fat content in the liver acinus ([3]; rabbit, in vivo)	Liver tissue morphology ([3]; rabbit, in vivo)	HDL compared to the control group [2]	Total cholesterol compared to the control group [2]	GOT [2, 4]	GPT [2, 4] [IU/L]	GOT and GPT compared among the test groups ([2]; associated with hepatotoxicosis)	Grade of abnormal fat content in the liver acinus ([3]; 1+ (0–25%), 2+ (26–50%), 3+ (51–75), 4+ (76–100%), rabbits, 1% cholesterol diet, 8 weeks, average ± standard deviation)	Liver tissue morphology ([3]; rabbits, 1% cholesterol diet, 8 weeks)
COC(=O)C(CO)NC(=O)CCc1ccc(O)c(O)c1 (stereo not shown) [BN30063, 2-[3-(3,4-dihydroxyphenyl)propionylamino]-3-hydroxy propionic acid methyl ester]	186.56	0	44.8 ± 10.5%	significantly lower	81 ± 16	1643 ± 194 mg/dL	3.71 ± 0.35	not observed any abnormality	–	–	–	–	–	–	–
CC(C)CC(NC(=O)CCc1ccc(O)c(O)c1)C(=O)O (stereo not shown) [BN30064, 2-[3-(3,4-dihydroxyphenyl)propionylamino]-4-methyl pentanoic acid]	152.49	18.07	31.2 ± 11.6^b %	significantly lower	85 ± 15	1596 ± 191^b mg/dl	3.70 ± 0.10	not observed any abnormality	significantly increased value	significantly low	–	–	–	–	–
O=C(O)CC(NC(=O)CCc1ccc(O)c(O)c1)C(=O)O (stereo not shown) [BN30067, 2-[3-(3,4-dihydroxyphenyl)propionylamino]-succinic acid]	160.01	14.03	43.0 ± 13.9^b %	significantly lower	81 ± 14	1710 ± 251 mg/dL	3.82 ± 0.8	not observed any abnormality	–	–	–	–	–	–	–
CC[C@H](C)C(=O)O[C@H]1C[C@@H](C)C=C2C=C[C@H](C)[C@H](CC[C@@H]3C[C@@H](O)CC(=O)O3)[C@H]21 [Lovastatin, reference compound]	166.66	10.46	30.3 ± 12^b %	significantly lower	70 ± 6	1739 ± 86 mg/dL	–	–	–	–	105 ± 47^b IU/L	47 ± 18	highest GOT and GPT values among the test groups	3.83 ± 0.5^b	a grade higher than that of the control group

Source: patent publication US7223793B2, “Phenolic acid derivatives and composition for preventing or treating blood lipid level-related diseases comprising the same” (Bionutrigen Co., Ltd., priority 2001, dated 2007)
